The results in this text go back to patent US4145444A, “Anti-inflammatory agent of benzoyl derivative” (priority 1977, dated 1979).

SMILES strings stand for the structures. Read-outs that look alike come from different tables or passages of the source.

One series has as its system hind paws of male rats. The series can be described thus: Anti-inflammatory effect: acute carragheenin edema method. Format: in vivo. To be noted: for inhibition in vivo at 100 mg/kg: read-out: Anti-inf.: edema inhibition rate; for anti-inflammatory effect, inhibition rate (ED50), in words: rat, in vivo. The method, then: The edema was induced by subcutaneous injection of 1% carragheenin suspension in saline to the hind paws of male rats weighting 150 to 180 g. Each sample was orally given at the dosage of 100 mg/kg just before the inoculation of carragheenin.

A further series concerns platelet. Briefly: Blood platelet aggregation inhibiting effect (collagen-induced). To be noted: Oryctolagus cuniculus, Platelet; 10^-4 mole, collagen inducer, rabbit PRP; read-out: Blood platelet agg. inh.: percentage inhibition of platelet aggregation. Format: cell-based, rabbits. The source says: Male rabbits (Japan original white strain 3.3 to 3.6 kg) were anesthetized with Thiopental sodium and blood was sampled from the carotid artery.

The nature of a further series: in vivo. The note with it: mouse, in vivo, po. The method, then:
(§1) Each sample was dissolved in olive oil or dispersed in 1% Tween 20 aqueous solution.

The test system of a further series is thrombus. Briefly: Inhibiting effect on thrombosis (by-pass between left juglar vein and right carotid artery, silk thread). To be noted: Rattus norvegicus, read-out: Thrombosis inh.: thrombosis inhibition rate. Format: in vivo, SD type male rates. The gist of the method: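 Arteriovenous shunt with silk thread and heparin saline, run as three successive 15-min circulations, with thrombus wet weight measured on the thread each time. Compound given orally in carboxymethyl cellulose suspension at 100 mg/kg 5 h before the first circulation. Inhibition rate derived against control circulations.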

Series [1] relates to male mice. Briefly: Analgesic effect: painful stretchings following intraperitoneal 0.7% acetic acid. The note with it: Mus musculus, po, read-out: Analgesic: percentage diminition of times of painful stretching.
Method: Each sample was orally administered in the dosage of 100 mg/kg before injection of acetic acid.
Series [2] concerns adjuvant-induced arthritis. Briefly: Chronic inflammation (adjuvant-induced arthritis): reduction in edema of the hind paws. It is filed as in vivo, female rats of Sprague Drawley strain. The method, then: (§2) The effects of 1 4-n-butyl benzophenone and 2 4-n-butyl-2'-fluorobenzophenone against adjuvant-induced arthritis were studied.
(§3) For the study, adult female rats of Sprague Drawley strain weighing approximately 200 g were used. All rats received 0.1 ml of a suspension of dry heat-killed tubercle bacilli (human strains, commercial product of Difco Co.) in liquid paraffin (5 mg/ml, w/v) by a single intradermal injection into the tail.
The treatment of the animals by the test compounds were started fourteen days after injection of the adjuvant when arthritis developed sufficiently accompanying edema and erythema in paws. Each compound was orally given to animals daily for ten days. […] Phenylbutazone was used as the reference drug.
(§4) Evaluations were made using the following parameters.
(2) Relative reduction in edema of the hind paws.

Series [3] is described as follows: Chronic inflammation (adjuvant-induced arthritis): body weight gain. It is filed as in vivo, female rats of Sprague Drawley strain. The method, then: as §2, §3
The treatment of the animals by the test compounds were started fourteen days after injection of the adjuvant when arthritis developed sufficiently accompanying edema and erythema in paws. […] […] Phenylbutazone was used as the reference drug.
as §4

The subject of series [4] is male mice. The series can be described thus: in vivo. The note with it: oral, male mice, within 72 hours (Table 2). The method, then: as §1
[5] abbreviates: Rattus norvegicus, 100 mg/kg oral, carragheenin edema, male rats (Table 2).
[6] abbreviates: 100 mg/kg oral, 5 hours before first blood circulation, rats.

As for `CCCCCCc1ccc(C(=O)c2ccc(CCC)cc2)cc1` [Active ingredient No. 6], the inhibition in vivo at 100 mg/kg in the series on hind paws of male rats (setting [5]) was 44.2%; in the series with thrombus (setting [6]), 15.9%; in the series with male mice [1], 14.5%. Moreover, the inhibition (usually how much of the control response was suppressed) at 100 µM with platelet turned out to be 17.8%. In “in vivo”, the LD50 (commonly the dose at which mortality reaches 50%) at 72 h is 5000 mg/kg.

For the compound `CCCCC1C(=O)N(c2ccccc2)N(c2ccccc2)C1=O` [Phenylbutazone, reference compound], in series [2] (50 mg/kg/day oral), the “Relative volume ratio of swelling in hind paws, average, 6 days” value (from here on “Relative volume ratio of swelling … 6 days”) was 0.75 and the “Relative volume ratio of swelling in hind paws, average, 10 days” value (“Relative volume ratio of swelling … 10 days” for short) was determined as 0.75. Further, in series [3] (50 mg/kg/day oral), the “Body weight gain, average, 0 days” value was determined as 215.6; the “Body weight gain, average, 6 days” value stood at 207.7; the “Body weight gain, average, 10 days” value stood at 214.3.

As for `CCCCCCc1ccc(C(=O)c2ccc(CCCC)cc2)cc1` [Active ingredient No. 5], the inhibition in vivo at 100 mg/kg with hind paws of male rats (setting [5]) amounted to 46.3%; with thrombus (setting [6]), 20.3%; in the series on male mice [1], 12.1%. The inhibition at 100 µM with platelet is 15.3%. In the series “in vivo”, this compound registered an LD50 at 72 h of 5000 mg/kg.

On to `Cc1cc(C)c(C(=O)c2ccccc2C)c(C)c1` [Active ingredient No. 3], for which the values for the inhibition in vivo at 100 mg/kg in the series with hind paws of male rats (setting [5]), in the series on thrombus (setting [6]) and in the series with male mice [1] were 40%, 38.3% and 11.3%, respectively. For the same compound, in the series on hind paws of male rats (Rattus norvegicus, oral, carragheenin edema, male rats (Table 2), read-out: 50% inhibition ED50 (values in brackets)), the ED50 (commonly the midpoint of the dose-response relation) was determined as 290 mg/kg. Besides, in the series with platelet, the inhibition at 100 µM stood at 17.3%. In the series “in vivo”, this compound registered an LD50 at 72 h of 1500 mg/kg.

Regarding `CCCCc1ccc(C(=O)c2ccccc2F)cc1` [Active ingredient No. 8, 4-n-butyl-2'-fluorobenzophenone], in the series on hind paws of male rats, the “anti-inflammatory effect, inhibition rate (ED50), in words” value is listed as “especially high inhibition rate (ED50)”. For the same compound, in series [2] (50 mg/kg/day oral), the “Relative volume ratio of swelling … 6 days” value amounted to 0.74 and the “Relative volume ratio of swelling … 10 days” value was 0.76. Also, in series [2] (100 mg/kg/day oral), the “Relative volume ratio of swelling … 6 days” value worked out at 0.78 and the “Relative volume ratio of swelling … 10 days” value is given as 0.73. Moreover, in series [3] (50 mg/kg/day oral), the “Body weight gain, average, 0 days” value was 222.6; the “Body weight gain, average, 6 days” value is 223.0; the “Body weight gain, average, 10 days” value stood at 232.0. Besides, in series [3] (100 mg/kg/day oral), the “Body weight gain, average, 0 days” value worked out at 211.8; the “Body weight gain, average, 6 days” value is given as 205.8; the “Body weight gain, average, 10 days” value came to 214.4.

As to `CCCCc1ccc(C(=O)c2ccccc2)cc1` [Active ingredient No. 19, 4-n-butyl benzophenone], the “anti-inflammatory effect, inhibition rate (ED50), in words” value with hind paws of male rats was “especially high inhibition rate (ED50)”. In addition, in series [2] (100 mg/kg/day oral), the “Relative volume ratio of swelling … 6 days” value worked out at 0.97 and the “Relative volume ratio of swelling … 10 days” value worked out at 1.02. For the same compound, in series [2] (200 mg/kg/day oral), the “Relative volume ratio of swelling … 6 days” value is 0.76 and the “Relative volume ratio of swelling … 10 days” value was determined as 0.75. For the same compound, in series [3] (100 mg/kg/day oral), the “Body weight gain, average, 0 days” value was 229.2; the “Body weight gain, average, 6 days” value came to 217.5; the “Body weight gain, average, 10 days” value was determined as 218.2. Further, in series [3] (200 mg/kg/day oral), the “Body weight gain, average, 0 days” value turned out to be 214.1; the “Body weight gain, average, 6 days” value was 213.3; the “Body weight gain, average, 10 days” value amounted to 220.1.

For the compound `COc1ccc(C(=O)c2ccccc2)cc1` [compound 28], the inhibition in vivo at 100 mg/kg with hind paws of male rats (Rattus norvegicus, po) is 44.1%; in the series with thrombus (po, 5 h), 7.3%; with male mice [1], 4.2%. In addition, the inhibition at 100 µM in the series on platelet is 20.4%. Further, in the series on male mice [4], the “Acute toxicity LD50” value is given as more than 10000 mg/kg.
